Among the test systems are EKVX NSCLC; HL-60(TB) leukemia; NCI-H226 lung; NCI-H23 lung; OVCAR-8 ovarian; RXF 393 renal; SK-OV-3 ovarian; UACC-62 melanoma; UO-31 renal.
Assay in all cases: NCI anticancer screen, dose series, 48 h

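Where inhibition never reached the appropriate level, the endpoint shown equals the highest concentration tested. Otherwise, values were interpolated linearly from a five-concentration, 48-hour dose response in 96-well plates. At the GI50, growth is halved. TGI denotes the concentration required for complete inhibition of growth.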

Regarding `Cc1c(C)c2ccc3oc4ccccc4c3c2oc1=O`, the TGI with EKVX NSCLC, with HL-60(TB) leukemia, in the experiment with NCI-H226 lung, in the experiment on NCI-H23 lung, with OVCAR-8 ovarian and with RXF 393 renal was over 100 µM each time. The TGI in the experiment on SK-OV-3 ovarian, with UACC-62 melanoma and in the experiment on UO-31 renal was over 100 µM in each case.

Regarding `C=CCC1(CN(C)C)CC/C(=C\c2ccc(OC)cc2)C1=O` (configuration not stated), the TGI in the experiment on EKVX NSCLC was over 100 µM; in the experiment on HL-60(TB) leukemia, 45.6 µM; with NCI-H226 lung, over 100 µM; in the experiment on NCI-H23 lung, over 100 µM; in the experiment on OVCAR-8 ovarian, over 100 µM; in the experiment on RXF 393 renal, over 100 µM. Moreover, the TGI in the experiment with UACC-62 melanoma and in the experiment on UO-31 renal was over 100 µM in each case.

In the case of `CC(C)N(C(=O)C12C3C4C5(C#N)C3C1(C#N)C5C42C#N)C(C)C` (configuration not stated), the TGI in the experiment on EKVX NSCLC, in the experiment on HL-60(TB) leukemia, with NCI-H226 lung, in the experiment on NCI-H23 lung, in the experiment with OVCAR-8 ovarian and in the experiment with SK-OV-3 ovarian was over 100 µM in each case. The TGI in the experiment with UACC-62 melanoma and in the experiment on UO-31 renal was over 100 µM each time.

Turning to `COC1CCC(OS(C)(=O)=O)C(CO)O1` (configuration not stated), the TGI in the experiment with EKVX NSCLC, in the experiment on HL-60(TB) leukemia, in the experiment with NCI-H23 lung, in the experiment on OVCAR-8 ovarian, in the experiment with RXF 393 renal and in the experiment with SK-OV-3 ovarian was over 100 µM in each case. The TGI in the experiment on UACC-62 melanoma and in the experiment with UO-31 renal was over 100 µM throughout.

In the case of `C[C@@H](Oc1cc(-n2cnc3ccc(OC4CCN(C)CC4)cc32)sc1C(N)=O)c1ccccc1Cl`, the GI50 with HL-60(TB) leukemia is 0.00871 µM; in the experiment on NCI-H226 lung it was 0.289 µM; in the experiment on NCI-H23 lung, 0.0183 µM; with OVCAR-8 ovarian it was 0.0197 µM; with RXF 393 renal, 0.0112 µM; with SK-OV-3 ovarian, 0.0216 µM. Besides, the values for the GI50 with UACC-62 melanoma and in the experiment on UO-31 renal were 0.033 µM and 1.74 µM, respectively. For the same molecule, the TGI with HL-60(TB) leukemia stood at 2.92 µM; in the experiment with NCI-H226 lung, 5.49 µM; in the experiment on NCI-H23 lung it was 5.18 µM; in the experiment with OVCAR-8 ovarian, 3.36 µM; with RXF 393 renal, 3.53 µM; with SK-OV-3 ovarian it was 2.8 µM. The TGI with UACC-62 melanoma came to 4.62 µM; with UO-31 renal it was 5.95 µM.

With `CSc1ccc2c(cc1=O)[C@@H](NC(=O)c1cccc([N+](=O)[O-])c1)CCc1cc(O)c(O)c(O)c1-2`, the TGI was over 100 µM with EKVX NSCLC; over 100 µM with HL-60(TB) leukemia; 57.9 µM with NCI-H226 lung; over 100 µM in the experiment with NCI-H23 lung; over 100 µM in the experiment on OVCAR-8 ovarian; over 100 µM in the experiment with RXF 393 renal. For the same molecule, the TGI with SK-OV-3 ovarian is over 100 µM; in the experiment with UACC-62 melanoma, 39.2 µM; in the experiment on UO-31 renal, over 100 µM.

On to `Cc1ccc(C)c(N2C(=O)C(=O)C(c3nc4ccccc4s3)/C(=N/N)C2=O)c1` (configuration not stated), for which the TGI in the experiment with EKVX NSCLC, with HL-60(TB) leukemia, with NCI-H226 lung, in the experiment on NCI-H23 lung, with OVCAR-8 ovarian and in the experiment with RXF 393 renal was over 100 µM in each case. Also, the TGI in the experiment on SK-OV-3 ovarian, with UACC-62 melanoma and with UO-31 renal was over 100 µM in each case.

For `NC(=O)NNC(=O)CCn1[nH]c(=O)c(Cl)c(Cl)c1=O`, the TGI with EKVX NSCLC, in the experiment on HL-60(TB) leukemia, with NCI-H226 lung, in the experiment with NCI-H23 lung, with OVCAR-8 ovarian and in the experiment on RXF 393 renal was over 100 µM throughout. The TGI in the experiment on SK-OV-3 ovarian, in the experiment with UACC-62 melanoma and in the experiment with UO-31 renal was over 100 µM throughout.

In the case of `CC1=N/C(=C/c2ccc3c(c2)OCO3)C(=O)O1`, the TGI in the experiment with EKVX NSCLC, in the experiment with NCI-H23 lung, with OVCAR-8 ovarian, with RXF 393 renal, in the experiment with SK-OV-3 ovarian and with UACC-62 melanoma was over 100 µM each time. The molecule also came in with a TGI with UO-31 renal of over 100 µM.

As for `CCN(CC)CCCNc1nccc2c(C)c3c(cc12)c1cnccc1n3C`, the TGI came out at 1.52 µM in the experiment with EKVX NSCLC; 1.18 µM in the experiment on NCI-H23 lung; 1.25 µM in the experiment on OVCAR-8 ovarian; 2.73 µM with SK-OV-3 ovarian; 2.25 µM in the experiment on UACC-62 melanoma; 2.32 µM with UO-31 renal.

In the case of `O=C1C=C(Nc2ccc(Cl)cc2Cl)c2ccccc2C1=O`, the TGI in the experiment with EKVX NSCLC was over 100 µM; in the experiment on HL-60(TB) leukemia, 92.5 µM; in the experiment on NCI-H226 lung, 87.2 µM; with NCI-H23 lung it was 54.5 µM; with OVCAR-8 ovarian, over 100 µM; with RXF 393 renal it was over 100 µM. For the same molecule, the results for the TGI in the experiment on SK-OV-3 ovarian, with UACC-62 melanoma and in the experiment on UO-31 renal were over 100 µM, 32.8 µM and over 100 µM, respectively.

For `COC(=O)c1cc2c(=O)n(C)c3ccccc3n2c1C(=O)OC`, the TGI was 78.2 µM in the experiment with EKVX NSCLC; 81.2 µM in the experiment with NCI-H226 lung; over 100 µM with NCI-H23 lung; over 100 µM in the experiment on OVCAR-8 ovarian; over 100 µM in the experiment on RXF 393 renal; 66.8 µM with SK-OV-3 ovarian. Moreover, the TGI with UACC-62 melanoma and in the experiment with UO-31 renal was over 100 µM each time.

`C=C[C@@H](C)[C@]1(C(=O)OC)CCCC12OCCO2`: the TGI in the experiment with EKVX NSCLC, with HL-60(TB) leukemia, with NCI-H226 lung, with OVCAR-8 ovarian, with RXF 393 renal and with SK-OV-3 ovarian was over 100 µM each time. Also, the TGI in the experiment on UACC-62 melanoma and in the experiment with UO-31 renal was over 100 µM throughout.

`CCOC(OC(C)=O)[C@@H]1C=C[C@H](C)N(c2ccc([N+](=O)[O-])cc2)O1` (some centres not stated): the TGI in the experiment on EKVX NSCLC came to 39 µM; in the experiment on HL-60(TB) leukemia, 4.79 µM; in the experiment with NCI-H226 lung, 14 µM; with NCI-H23 lung, 16.2 µM; with OVCAR-8 ovarian, 4.55 µM; with RXF 393 renal, 22.4 µM. The TGI in the experiment with SK-OV-3 ovarian was 35.3 µM; with UACC-62 melanoma, 7.55 µM; with UO-31 renal, 9.16 µM.

For `CC(=O)Nc1ccc(/C=C/C(=O)c2sc(-c3cccnc3)nc2C)cc1`, the TGI in the experiment on EKVX NSCLC, in the experiment with HL-60(TB) leukemia, in the experiment with NCI-H226 lung, in the experiment on NCI-H23 lung, with OVCAR-8 ovarian and in the experiment on RXF 393 renal was over 100 µM in each case. Besides, the TGI in the experiment with SK-OV-3 ovarian, with UACC-62 melanoma and with UO-31 renal was over 100 µM each time.

Take `O=C(C(=O)c1cc2ccccc2[nH]1)c1cc2ccccc2[nH]1`: the TGI with EKVX NSCLC, with HL-60(TB) leukemia, in the experiment with NCI-H226 lung, in the experiment with NCI-H23 lung, in the experiment on OVCAR-8 ovarian and in the experiment on RXF 393 renal was over 347 µM throughout. Also, the TGI in the experiment with SK-OV-3 ovarian, in the experiment on UACC-62 melanoma and in the experiment with UO-31 renal was over 347 µM each time.

Regarding `CCC[C@H]1O[C@@H]2CC(=O)O[C@@H]2C2=C1C(=O)C=CC2=O`, the TGI is over 62.4 µM in the experiment with EKVX NSCLC; 37.7 µM with HL-60(TB) leukemia; 18.4 µM with NCI-H226 lung; 18.5 µM in the experiment with NCI-H23 lung; over 74.9 µM in the experiment on OVCAR-8 ovarian; 30.4 µM with RXF 393 renal. Moreover, the TGI with SK-OV-3 ovarian was over 56.3 µM; in the experiment on UACC-62 melanoma it was 32.3 µM; with UO-31 renal, 32.5 µM.

In the case of `N#C/C(=C\c1cc(O)cc(O)c1)C(N)=O`, the TGI in the experiment on EKVX NSCLC, with NCI-H226 lung, in the experiment with NCI-H23 lung, in the experiment on OVCAR-8 ovarian, in the experiment with RXF 393 renal and in the experiment on SK-OV-3 ovarian was over 100 µM throughout. Besides, the TGI in the experiment with UACC-62 melanoma and in the experiment on UO-31 renal was over 100 µM in each case.

With `C=C(C)[C@H]1CC[C@@]2(C)C(C1)[C@H](C)CC[C@@H]2O` (some centres not stated), the TGI with EKVX NSCLC, in the experiment with NCI-H226 lung, in the experiment on NCI-H23 lung, in the experiment on OVCAR-8 ovarian, in the experiment on RXF 393 renal and in the experiment with SK-OV-3 ovarian was over 100 µM in each case. Moreover, the TGI with UACC-62 melanoma and in the experiment with UO-31 renal was over 100 µM in each case.

With `Cc1nc2sccn2c1C(=O)NN`, the TGI in the experiment on EKVX NSCLC, in the experiment on HL-60(TB) leukemia, in the experiment with NCI-H226 lung, with NCI-H23 lung, with OVCAR-8 ovarian and in the experiment with RXF 393 renal was over 100 µM each time. Also, the TGI in the experiment with SK-OV-3 ovarian and in the experiment with UACC-62 melanoma was over 100 µM throughout.

As for `Cc1cnc2ccc(C)c([N+](=O)[O-])c2c1NCCCN(C)C`, the TGI with EKVX NSCLC, with HL-60(TB) leukemia, in the experiment with NCI-H226 lung, in the experiment on NCI-H23 lung, in the experiment on OVCAR-8 ovarian and with SK-OV-3 ovarian was over 100 µM each time. The same molecule yielded a TGI in the experiment with UO-31 renal of over 100 µM.

On to `NNC(=O)C(=O)N/N=C(\CCCC(=O)Nc1ccc(Cl)cc1)CC(=O)c1ccc(F)cc1`, for which the TGI with EKVX NSCLC, in the experiment with HL-60(TB) leukemia, in the experiment on NCI-H226 lung, in the experiment with NCI-H23 lung, in the experiment on OVCAR-8 ovarian and in the experiment on RXF 393 renal was over 100 µM each time. Moreover, the TGI in the experiment with UACC-62 melanoma is 78.5 µM; in the experiment on UO-31 renal, over 100 µM.

As to `COc1ccc(C(c2ccccc2)(c2ccc(OC)cc2)N2C(=O)NC3C(CCCCC(=O)NCCCCCCOP(OCCC#N)N(C(C)C)C(C)C)SCC32)cc1` (configuration not stated), the TGI in the experiment with EKVX NSCLC came out at 56.5 µM; in the experiment on HL-60(TB) leukemia, 32.1 µM; in the experiment on NCI-H226 lung, 30.4 µM; in the experiment on NCI-H23 lung it was 32.3 µM; in the experiment on OVCAR-8 ovarian it was 90.6 µM; with RXF 393 renal it was 24.2 µM. Besides, the TGI stood at 27.4 µM with UACC-62 melanoma and 27.5 µM in the experiment with UO-31 renal.

Source of the values: PubChem BioAssay (NCI).
